Data set [1] deals with SH-SY5Y. Put plainly: Neuroprotective activity against H2O2-induced oxidative damage in human SH-SY5Y cells assessed as cell viability at 10 uM measured after 24 hrs by MTT assay relative to control. The format is functional. The following applies: read-out: Activity.
The subject of data set [2] is PC-12. Put plainly: Neuroprotective activity against H2O2-induced oxidative damage in rat PC12 cells assessed as cell viability at 10 uM measured after 24 hrs by MTT assay relative to control. The format is functional. The following applies: PC-12, 24 h, read-out: Activity.
The test system of data set [3] is SH-SY5Y. Put plainly: Neuroprotective activity against H2O2-induced oxidative damage in human SH-SY5Y cells assessed as increase in cell viability measured after 24 hrs by MTT assay. The format is functional, cell-based.
Data set [4] is described as follows: Metal chelating activity assessed as compound-Ca2+ complex formation at 20 uM in the presence of CaCl2 after 30 mins by UV-visible spectrophotometric analysis.
Data set [5] in a line: Metal chelating activity assessed as Na+-compound complex formation at 20 uM in the presence of NaCl after 30 mins by UV-vis spectrophotometric analysis.
Data set [6] concerns SH-SY5Y. Put plainly: Cytotoxicity against human SH-SY5Y cells measured after 24 hrs by MTT assay. The format is cell-based.
The test system of data set [7] is SH-SY5Y. Put plainly: Neuroprotective activity against Cu2+-mediated amyloid beta (1 to 42) (unknown origin)-induced cytotoxicity in human SH-SY5Y cells assessed as increase in cell viability at 2 uM measured after 24 hrs by MTT assay. The format is functional, cell-based.
Data set [8] can be described thus: Antioxidant activity assessed as ABTS radical scavenging activity incubated for 6 mins. The format is functional.
A short description of data set [9]: Metal chelating activity assessed as compound-Al3+ complex formation by measuring blue shift in maximum absorption at 20 uM in the presence of AlCl3 after 30 mins by UV-visible spectrophotometric analysis (reference value: 407 nanometer).
Data set [10] addresses Amyloid-beta precursor protein (Homo sapiens) (UniProt P05067). Put plainly: Disaggregation of HFIP-pretreated human amyloid beta (1 to 42) preformed fibrils at 40 uM after 24 hrs by ThT-based fluorometric method relative to control.
Data set [11] is described as follows: Metal chelating activity assessed as compound-Fe2+ complex formation at 20 uM in the presence of FeSO4 after 30 mins by UV-visible spectrophotometric analysis.
For data set [12], the target named is T1, Glycogen synthase kinase-3 beta (Homo sapiens, UniProt P49841). Put plainly: Inhibition of GSK3bbeta in human SH-SY5Y cells assessed as reduction in human amyloid beta (25 to 35) peptide-induced tau hyperphosphorylation at Ser396 residue preincubated for 1 hr followed by amyloid beta-stimulation and measured after 6 hrs by Western blot analysis. The format is cell-based.
Target sequence in this assay (P49841 whole entry, looked up): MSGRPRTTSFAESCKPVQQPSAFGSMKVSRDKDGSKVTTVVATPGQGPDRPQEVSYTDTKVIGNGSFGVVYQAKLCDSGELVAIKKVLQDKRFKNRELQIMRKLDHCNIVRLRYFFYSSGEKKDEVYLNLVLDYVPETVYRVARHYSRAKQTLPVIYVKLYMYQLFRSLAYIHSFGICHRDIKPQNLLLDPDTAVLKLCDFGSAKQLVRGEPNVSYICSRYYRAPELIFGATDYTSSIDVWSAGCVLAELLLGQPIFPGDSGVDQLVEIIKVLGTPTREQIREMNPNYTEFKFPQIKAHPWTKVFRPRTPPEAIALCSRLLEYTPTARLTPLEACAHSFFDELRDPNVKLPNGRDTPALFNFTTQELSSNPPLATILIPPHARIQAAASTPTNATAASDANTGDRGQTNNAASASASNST

A short description of data set [13]: Potency index, ratio of trolox IC50 to test compound IC50 for ABTS radical scavenging activity. The format is functional.
For data set [14], the target named is Amyloid-beta precursor protein (Homo sapiens) (UniProt P05067). Put plainly: Inhibition of human HFIP-pretreated amyloid beta (1 to 42) self aggregation at 40 uM after 24 hrs by ThT-based fluorometric method relative to control.
Amyloid-beta precursor protein (Homo sapiens), sequence (P05067 whole entry): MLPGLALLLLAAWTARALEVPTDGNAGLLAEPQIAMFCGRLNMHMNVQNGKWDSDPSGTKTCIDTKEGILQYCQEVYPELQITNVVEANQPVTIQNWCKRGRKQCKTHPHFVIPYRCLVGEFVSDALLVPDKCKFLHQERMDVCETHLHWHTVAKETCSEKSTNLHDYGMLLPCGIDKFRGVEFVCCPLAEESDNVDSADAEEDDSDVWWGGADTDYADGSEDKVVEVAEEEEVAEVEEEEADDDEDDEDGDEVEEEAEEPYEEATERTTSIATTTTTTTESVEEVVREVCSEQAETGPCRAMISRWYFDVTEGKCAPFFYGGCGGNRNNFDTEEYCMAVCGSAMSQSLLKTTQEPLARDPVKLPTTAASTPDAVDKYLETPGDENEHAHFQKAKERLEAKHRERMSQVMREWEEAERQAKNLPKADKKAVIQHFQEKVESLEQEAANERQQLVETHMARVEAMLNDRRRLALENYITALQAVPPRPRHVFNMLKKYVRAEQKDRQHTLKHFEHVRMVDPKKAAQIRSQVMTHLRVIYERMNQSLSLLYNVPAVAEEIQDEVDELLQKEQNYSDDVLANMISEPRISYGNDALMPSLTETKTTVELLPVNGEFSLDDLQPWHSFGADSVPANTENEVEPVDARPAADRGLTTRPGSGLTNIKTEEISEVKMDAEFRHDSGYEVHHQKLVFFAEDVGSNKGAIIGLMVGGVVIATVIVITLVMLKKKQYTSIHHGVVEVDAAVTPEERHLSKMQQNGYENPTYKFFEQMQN
A short description of data set [15]: Metal chelating activity assessed as compound-Mg2+ complex formation at 20 uM in the presence of MgCl2 after 30 mins by UV-visible spectrophotometric analysis.
The subject of data set [16] is SH-SY5Y. Put plainly: Cytotoxicity against human SH-SY5Y cells at 2 uM in the presence of CuCl2 measured after 24 hrs by MTT assay. The format is cell-based.
Data set [17] is described as follows: Metal chelating activity assessed as K+-compound complex formation at 20 uM in the presence of KCl after 30 mins by UV-vis spectrophotometric analysis.
The target in data set [18] is T1, Glycogen synthase kinase-3 beta. Put plainly: Inhibition of GSK-3beta (unknown origin) using FAM-labeled peptide as substrate preincubated for 10 mins followed by substrate addition by caliper assay.
Target sequence in this assay (P49841 whole entry): as the sequence (P49841 whole entry, looked up) above
Data set [19] has as its system PC-12. Put plainly: Cytotoxicity against rat PC12 cells measured after 24 hrs by MTT assay. The format is cell-based. The following applies: PC-12, 24 h.
Data set [20] in a line: Inhibition of Cu2+-induced HFIP pretreated human amyloid beta (1 to 42) aggregation at 40 uM measured after 24 hrs by ThT-based fluorescence assay relative to control.
Data set [21] is described as follows: Metal chelating activity assessed as inhibition of Cu(II)/ascorbate-induced ROS production by measuring fluorescence intensity at 100 uM measured at 20 secs interval for 1000 secs by fluorescence assay (reference value: 10 to 52).
Data set [22] deals with SH-SY5Y. Put plainly: Neuroprotective activity against amyloid beta (1 to 42) (unknown origin)-induced cytotoxicity in SH-SY5Y cells assessed as cell viability at 2 uM measured after 24 hrs by MTT assay (reference value: 78%). The format is functional. The following applies: Homo sapiens.
Data set [23] in a line: Disaggregation of Cu2+ induced human HFIP-pretreated amyloid beta (1 to 42) preformed fibrils at 40 uM measured after 24 hrs by ThT-based fluorescence assay relative to control.
Data set [24] has as its target T1, Glycogen synthase kinase-3 beta. Put plainly: Inhibition of GSK3bbeta in human SH-SY5Y cells assessed as reduction in human amyloid beta (25 to 35) peptide-induced tau hyperphosphorylation at Ser396 residue at 25 uM preincubated for 1 hr followed by amyloid beta-stimulation and measured after 6 hrs by Western blot analysis relative to control. The format is cell-based.
Target sequence in this assay (P49841 whole entry, looked up): as above

Data set [25] in a line: Metal chelating activity assessed as compound-Zn2+ complex formation at 20 uM in presence of ZnCl2 after 30 mins by UV-visible spectrophotometric analysis.
The nature of data set [26]: Metal chelating activity assessed as compound-Cu2+ complex formation by measuring blue shift in maximum absorption at 20 uM in presence of CuCl2 after 30 mins by UV-visible spectrophotometric analysis (reference value: 244 nanometer).
Data set [27] relates to SH-SY5Y. Put plainly: Neuroprotective activity against Cu2+-mediated amyloid beta (1 to 42) (unknown origin)-induced cytotoxicity in human SH-SY5Y cells assessed as cell viability at 2 uM measured after 24 hrs by MTT assay (reference value: 71%). The format is functional. The following applies: read-out: Activity.
Data set [28] in a line: Metal chelating activity assessed as compound-Al3+ complex formation by measuring blue shift in maximum absorption at 20 uM in the presence of AlCl3 after 30 mins by UV-visible spectrophotometric analysis (reference value: 248 to 407 nanometer).
The nature of data set [29]: Potency index, ratio of test compound effect to clioquinol effect for disaggregation of Cu2+ induced human HFIP-pretreated amyloid beta (1 to 42) preformed fibrils.
Data set [30] in a line: Metal chelating activity assessed as compound-Cu2+ complex formation by measuring blue shift in maximum absorption at 20 uM in presence of CuCl2 after 30 mins by UV-visible spectrophotometric analysis (reference value: 248 nanometer).
The target in data set [31] is T1, Glycogen synthase kinase-3 beta. Put plainly: Inhibition of GSK3bbeta in human SH-SY5Y cells assessed as reduction in human amyloid beta (25 to 35) peptide-induced tau hyperphosphorylation at Ser396 residue at […] preincubated for 1 hr followed by amyloid beta-stimulation and measured after 6 hrs by Western blot analysis. The format is cell-based.
Target sequence in this assay (P49841 whole entry, looked up): as above

Active and inactive are the calls of the source. The calls are words filed in the database; no cut-off is given here. Some results are limits rather than exact numbers.

Regarding `Nc1ncc(-c2ccncc2)cc1/N=C/c1ccnc(NC(=O)C2CC2)c1`, the viability at 10 µM is 92% with SH-SY5Y [1] and 76.4% in the data set with PC-12 [2]. The Activity entry in the data set with SH-SY5Y [3] is “Dose-dependent effect”; in data set [9], 378 nm; with SH-SY5Y [16], “Non-Toxic”; in data set [23] it was 50.9%; in data set [26], 241 nm. Further, the result in data set [4], in [5], in data set [10], in data set [11], in data set [15] and in data set [17] was inactive. For the same compound, the result (in the data set with SH-SY5Y [22]; in data set [25]) was inactive. The IC50 in the data set with SH-SY5Y [6] is more than 200 µM; in data set [8] it was 3.44 µM; in data set [18], 0.038 µM; in the data set on PC-12 [19], 161 µM. Moreover, the outcome in the data set with SH-SY5Y [7] was Active. The inhibition result is “Dose-dependent effect” in data set [12], 33.8% in data set [20] and less than 50% in [24]. Besides, the Ratio IC50 in data set [13] lay within 2 to 4. Moreover, in data set [14], the inhibition entry was “inactive”. For the same compound, the Flu intensity in data set [21] fell in the range of 33 to 54.
As to `Nc1ncc(-c2ccccc2)cc1/N=C/c1ccnc(NC(=O)C2CC2)c1`, the viability at 10 µM came to 92.7% with SH-SY5Y [1] and 71.8% in the data set on PC-12 [2]. Moreover, the Activity entry with SH-SY5Y [3] was “Dose-dependent effect”; in data set [28], 242 to 339 nm; with SH-SY5Y [16], “Non-Toxic”; in data set [23], 66.1%; in [30], 244 nm. Besides, the result in data set [4], in [5], in [10], in [11], in [15] and in data set [17] was inactive. In addition, the result (in the data set with SH-SY5Y [22]; in data set [25]) was inactive. Moreover, the viability at 2 µM in the data set on SH-SY5Y [27] turned out to be 93%. Moreover, the half-maximal inhibitory concentration (IC50) in the data set on SH-SY5Y [6] turned out to be 158 µM; in [8] it was 7.3 µM; in [18], 0.049 µM; in the data set on PC-12 [19] it was 83.2 µM. Also, the inhibition result in data set [12] was “Dose-dependent effect”; in data set [20], 63%; in data set [24] it was less than 50%. Also, in [13], the Ratio IC50 was 2 to 4. Further, in [14], the inhibition entry is “inactive”. The Flu intensity in data set [21] was in the range of 53 to 68. For the same compound, the Ratio in data set [29] came to 2.
In the case of `[Cl-].[Li+]`, the inhibition entry in [31] was “Active”.

The values above are taken from ChEMBL document CHEMBL4340509, “Synthesis and evaluation of novel GSK-3β inhibitors as multifunctional agents against Alzheimer's disease” (Eur J Med Chem, 2019).
